Reference: article PMC12456999, “Sulfonyl Homoserine Lactones Are Tunable Probes to Inhibit the Quorum Sensing Receptor RhlR and Reduce Swarming Motility in Pseudomonas aeruginosa” (ACS Infectious Diseases, 2025)
Like-named read-outs stand apart in the source and are kept apart here.

Key:
P. aeruginosa PAO1 = experiment: Swarming motility assay; assay type: cell-based, Pseudomonas aeruginosa; conditions: PAO1 + DMSO = 100%, PAO1 ΔrhlR + vehicle = 0%; for reduction in swarming activity relative to the controls: compound at 500 μM
From the text: We next evaluated the ability of the four sulfonyl HLs 39, 43, 59, and 75 capable of inhibiting RhlR in the P. aeruginosa reporter to reduce swarming motility in a wild-type P. aeruginosa strain (PAO1). Swarming is a rapid, group-coordinated movement of a bacterial population across a semisolid surface, linked to increased expression of virulence factors and increased antibiotic resistance and regulated in P. aeruginosa, at least in part, by the Rhl system. The results of these phenotypic assays are shown in Figure (see Methods for protocol). The swarming ability of PAO1 in the presence of vehicle (DMSO) served as a positive control (set to 100%). As a key negative control, we examined the swarming ability of a PAO1 ΔrhlR mutant in the presence of the vehicle and observed […] relative to the positive control (set to 0%).
5 Swarming motility assay data in P. aeruginosa. […] Area of the colony after 42 h incubation was used to calculate swarming activity (see Methods). Positive control = PAO1 treated with vehicle (DMSO, 100%). Negative control = PAO1 ΔrhlR treated with vehicle (0%). Error bars = standard deviation of the means of triplicate samples. (B) Representative images of P. aeruginosa swarming on agar plates used to generate data in panel A.
The motility assay was based in part on a previously reported procedure. P. aeruginosa PAO1 was grown overnight with 500 or 250 μM compound, or vehicle (DMSO), at 37 °C and normalized to OD600 = 0.4. Cells were washed with sterile water twice and resuspended with 500 (39, 43, and 59) or 250 (75) μM fresh compound or vehicle (DMSO), in M8 minimal medium. Cells (5 μL) were spotted in the center of agar plates (100 mm diameter) generated from M8 minimal medium + 1 mM MgSO4 + 0.2% glucose + 0.5% Casamino acids + 0.5% agar. Plates were covered and the cells were grown for 24–48 h at 37 °C prior to imaging (using an iPhone 14 camera). Photographs were analyzed using ImageJ to calculate the area of the swarm and normalized to the area of (P. aeruginosa PAO1 + vehicle) – (P. aeruginosa PDO111 (ΔrhlR) + vehicle).

RhlR = target: T1, RhlR (Pseudomonas aeruginosa, UniProt P54292); experiment: P. aeruginosa PA14 ΔrhlIΔlasI RhlR GFP reporter antagonism assay; assay type: cell-based; conditions: for Max Inhibition (RhlR): P. aeruginosa PA14 ΔrhlIΔlasI, against 4 μM BHL with 10 μM OdDHL, highest concentrations tested
T1 construct: expressed in transfected cells; host or cells: E. coli JLD271 (K-12 ΔlacX74 sdiA271::Cam) carrying pJN105-R2 (RhlR expression) and pSC11-rhlI (rhlI'-lacZ reporter)
T1 sequence (P54292 whole entry): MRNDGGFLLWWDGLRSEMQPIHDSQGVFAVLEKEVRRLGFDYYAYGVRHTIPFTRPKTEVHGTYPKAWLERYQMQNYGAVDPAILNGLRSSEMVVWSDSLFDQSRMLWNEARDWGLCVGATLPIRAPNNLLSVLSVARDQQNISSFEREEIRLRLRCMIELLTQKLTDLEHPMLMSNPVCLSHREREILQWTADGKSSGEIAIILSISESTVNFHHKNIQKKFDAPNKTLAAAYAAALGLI
Experimental: We were interested in determining whether these new RhlR antagonists identified in an E. coli RhlR reporter maintained their activity in the native organism, P. aeruginosa. […] Antagonism of RhlR was measured in the presence of BHL and OdDHL (the latter signal was needed to induce the production of RhlR via LasR). […] The reasons for this reduction in activity are likely multifold, but we believe that they may stem from the low permeability of P. aeruginosa to small molecules, its lower (native) level of RhlR expression, its abundance of efflux pumps, and/or the cross-interaction of compounds with other targets (LasR, QscR, and potentially others) that then regulate RhlR. […] Nevertheless, these reporter data for sulfonyl HLs 39, 43, 59, and 75 in P. aeruginosa indicate that these compounds are capable of antagonizing RhlR activity in the native host.
RhlR activity in E. coli strain JLD271 (ΔsdiA) was measured via a β-galactosidase reporter (rhI-lacZ) using the Promega Beta-Glo Assay System as previously described. RhlR activity in P. aeruginosa PA14 (ΔrhlIΔlasI) was measured via a GFP reporter (rhlA-gfp). […] See Supporting Information for both reporter protocols.
Supporting Information — Aguirre-Figueroa et al.
P. aeruginosa RhlR reporter assay. RhlR activity in P. aeruginosa PA14 ΔrhlIΔlasI was measured via a GFP reporter. Briefly, a single colony of P. aeruginosa strain PA14 ΔrhlIΔlasI harboring the transcriptional fusion reporter pPROBE-GT rhlA-GFP (Table S1) was grown in LB medium with 40 μg/mL gentamicin overnight (~20 h). The culture was diluted 1:100 in fresh LB medium, without antibiotic, to an OD600 = 0.25 (0.22–0.30) (~1 h). Aliquots (2 μL) of compound DMSO stock solution or serial dilution were added to the inner wells (i.e., non-periphery rows) of a black, clear bottom 96-well plate. To 12 inner wells, DMSO alone (vehicle) was added to serve as controls (negative and positive). For the six negative control wells (no BHL), 198 μL of bacterial culture plus OdDHL (to achieve 10 μM) were added. For the six positive control wells (no test compound), 198 μL of bacterial culture plus OdDHL (10 μM) and BHL (to achieve 4 μM) were added. To all the remaining wells containing test compound, 198 μL of bacterial culture plus OdDHL (10 μM) and BHL (4 μM) were added. Water (200 μL) was added to the outer (periphery) wells to maintain humidity during incubation. Plates were incubated for 4 h at 37 °C. After incubation, the OD600 and GFP production (excitation at 500 nm, emission at 540 nm) were read for each well using a plate reader. To determine levels of RhlR activity, raw GFP production was divided by OD600 to correct for growth variation and then normalized to the negative (0%) and positive (100%) control wells.
Dose-response reporter assay data for compounds in the P. aeruginosa RhlR reporter.
Dose-response curves for RhlR agonism by BHL and for RhlR antagonism by selected compounds against 4 μM BHL using the P. aeruginosa PA14 RhlR reporter are provided below. Compound names are indicated on the x-axis of each plot. All assays performed in triplicate as at least three separate biological replicates. Error bars indicate SD of n = 3 trials. Curve fits generated using GraphPad Prism software (v9.0) using a variable slope sigmoidal curve fit. IC50 values for antagonists […]
Max Inhibition = 47% Max Inhibition = 59%
Max Inhibition = 49% Max Inhibition = 67%
(also on this page, place not known: % Activity % Activity % Activity % Activity % Activity)

bacterial growth = experiment: Effect on bacterial growth (OD600 over time); assay type: cell-based; conditions: at >2 mM concentrations
Experimental: All new compounds were fully characterized for purity and identity (see Supporting Information). […] The remaining compounds had no effect on growth over the concentration range tested. All compounds were tested in bacteriological assays in triplicate and in at least three separate trials using unique cultures. IC50 and EC50 values in reporter assays were calculated using GraphPad Prism software (version 9.0) with a variable slope sigmoidal curve fit.

SMILES	reduction in swarming activity relative to the controls (P. aeruginosa PAO1) [%]	IC50 (RhlR) [µM]	Max Inhibition (RhlR) (RhlR) [%]	effect on bacterial growth (bacterial growth)	reduction in swarming (P. aeruginosa PAO1; compound at 250 μM) [%]	IC50 (RhlR; P. aeruginosa PA14 ΔrhlIΔlasI RhlR reporter) [µM]
O=C1OCC[C@@H]1NS(=O)(=O)c1cccc(Br)c1 [Compound 39, 3-bromo BSHL]	60	> 1000	47	modest effect on bacterial growth	–	–
O=C1OCC[C@@H]1NS(=O)(=O)c1ccc(Cl)c(Cl)c1 [Compound 43, 3,4-di-Cl BSHL]	60	> 1000	59	modest effect on bacterial growth	–	–
O=C1OCC[C@@H]1NS(=O)(=O)c1ccc(F)c(F)c1 [Compound 59, 3,4-di-F BSHL]	60	> 1000	49	–	–	–
CCCCCS(=O)(=O)N[C@H]1CCOC1=O [Compound 75, C5 ASHL]	–	–	67	–	30	> 1000
